Test results reported in patent US20240058288A1, “DRUG COCKTAIL FOR TREATMENT OF PARKINSON'S DISEASE, LEWY BODY DISEASE AND MULTIPLE SYSTEM ATROPHY” (ALETA NEUROSCIENCE, LLC, priority 2021, published 2024).
Where two headings read alike, the source gives them in different places.

Columns and labels:
[1] = test system: human dopaminergic neurons (iCell DopaNeurons); test: MPP+-induced neurotoxicity: cytolysis of iCell DopaNeurons; format: cell-based
Description: (§1) We conducted an in vitro study of the drugs in Table 1 to evaluate the neuroprotective effects of 44 conditions of treatment (Table 2, experiments 1-41; 51-53) against MPP+-induced neurodegeneration toxicity on human dopaminergic neurons (iCell® DopaNeurons: iPS cell-derived human midbrain floorplate dopaminergic neurons). Further combinations (Table 2, experiments 42-50 and Table 3) are also disclosed.
(§2) Three different measurements were made in the experiments. 1. Neurite length in mm is a measure of increase in dendrite length of neurons. […] 2. neurite branching is measure of dendrite branching. […] 3. Cytolysis of the cells is a measure of cell death. […] Experimental conditions were measured relative to the results of healthy cells in the studies.
(§3) Procedure. iCell DOPA neurons were thawed and cultured following the provider's instructions in Brainphys medium+provided supplements+1% N2 supplement (Stemcell Technologies)+penicillin/streptomycin+Laminin. They were plated at 20000 cells per well of a 384 well plate (pre-coated with poly-D-lysine and Laminin) in 70 μL of growth medium. Cells were incubated at 37° C./5% CO2 in a humidified cell culture incubator. Half of the culture medium was changed twice a week.
(§4) MPP+-induced neurotoxicity: 24 hours after neuronal plating, half of the medium was removed and the test compounds were applied with MPP+ treatment, both concentrated at 4×, were added to the wells. For each condition, six aliquots were added, corresponding to columns A-F in Table 2. Except for the NT/NT row, in each row, either the compound indicated dissolved in its vehicle noted in Table 1 was added, or only a vehicle was added as indicated. Column F is an indicator of whether MPP+ was added. If not, only the medium was added.
(§5) For the evaluation of conditions 1-28, Neurite outgrowth was followed for subsequent 48 hours using an Incucyte Zoom platform with one phase contrast image every 4 hours, using a 20× objective. After 48 hours, the medium containing test compounds and MPP+ was removed and replaced by fresh medium containing a fluorescent cytolysis marker (red fluorescence) and a live cell marker (green fluorescence). For the evaluation of conditions 29-53, Neurite outgrowth was followed similarly for subsequent 72 hours after MPP+ was added.
Data was normalized to control conditions as there is basal cytolysis in the cell culture after thawing.
Fluorescently immuno-stained cells were imaged on a high content imaging platform. Individual segmentation of cells was performed by image analysis of the MAP2 and NeuN staining. The number of neurons and the neurite length were measured. The percentage of cytolyzed cells was also calculated.
(§6) Statistical analysis. We used one-way ANOVA followed by Bonferroni's multiple comparisons test.

[2] = test system: human dopaminergic neurons (iCell DopaNeurons); test: MPP+-induced neurotoxicity: neurite outgrowth (neurite length, branch points) of iCell DopaNeurons, Incucyte; format: cell-based; details: for Neurite Length Data, Mean ± S.D.: Table 5.1 (FIG. 5A); for Neurite Length Data, Mean ± S.D. / Neurite Branching Data, Mean ± S.D.: conditions 17-28, AUC of kinetic data; for Neurite Branching Data, Mean ± S.D.: Table 5.2 (FIG. 5B); for effects on neurite outgrowth: vs MPP+ alone
Description: as §1
iCell DOPA neurons are neural floor plate-derived midbrain dopaminergic neurons generated from human induced pluripotent stem cells (iPSCs). Dopaminergic neurons, specifically those located in the floor plate-derived midbrain are implicated in neurological disorders such as Parkinson's disease, MSA and DLBD among others. Thus iCell DopaNeurons provide a highly relevant in vitro model to investigate these types of pathologies (42, 43). The iCellDopa neurons were supplied from FUJIFILM Cellular Dynamics.
as §2, §3, §4, §5
Each condition 1-41 and 51-53 was repeated in 8 wells of a 384 well plate, that is, each test condition studied in Table 2 was repeated eight times. NT/NT were cells in the standard medium only. Control/NT are the cells in the vehicle (as described above), with and without MPP+.
Assay endpoints and data analysis. Phase contrast images were analyzed at each time point to determine the neurite length and number of branch points per mm^2. Kinetic data was plotted and kinetics were normalized by subtracting the value of the first data point (at time of treatment), allowing to measure changes in neurite outgrowth only from the onset of the treatment, starting at zero. Area Under Curve (AUC) of kinetic data was obtained and used for plotting compound's effects and perform statistical analyzes.
as §6

[3] = PD patients, small double-blind placebo controlled trial; cited from earlier work
IL-1β = test: LPS/ATP-induced IL-1β in human microglia cells; format: cell-based; details: as compared with […] distilled water in presence of LPS and ATP
TNF-α = test: LPS/ATP-induced TNF-α secretion by human microglia cells (Luminex); format: cell-based; details: as compared with […] distilled water in presence of LPS and ATP
Description: (§7) In addition to the studies discussed above assessing activity of combinations of drugs on MPP+-induced neurodegeneration toxicity on human dopaminergic neurons and measuring neuronal growth and neurite branching, we also assessed combinations of drugs in reducing lipopolysaccharide (LPS, from E. coli)-induced neuroinflammation.
(§8) Lipopolysaccharides are important outer membrane components of gram-negative bacteria such as E. coli and salmonella. They are large amphipathic glycoconjugates that typically consist of a lipid domain (hydrophobic) attached to a core oligosaccharide and a distal polysaccharide. LPS binds to Toll-like receptor 4 (TLR4) and activates microglia (51) which in turn increases secretion of pro-inflammatory cytokines such as interleukin-6 (IL-6), tumor necrosis factor-α (TNF-α), and CXCL1/GROα.
(§9) Microglia cells were obtained from an iCell® Microglia kit, 01279 (Catalogue N° R1131) from FUJIFILM Cellular Dynamics. We followed the manufacturer's protocol for activation of the microglial cells with LPS/ATP to subsequently measure the effect of the study drugs on pro-inflammatory cytokines IL-6, TNF-α and CXCL1/GROα.
(§10) All cell culture procedures were performed in aseptic conditions, under a laminar flow hood. Microglia were thawed and cultured following the provider's instructions. The microglia were plated at 50,000 cells per well of a Corning Primaria 96 well plate (Ref N° 353872) in 100 μL of growth medium. Cells were incubated at 37° C./5% CO2 in a humidified cell culture incubator.
(§11) Three days after cell plating, the test or reference substances (25 μL of solutions at 5×) were applied 1 hour before LPS and ATP stimulation.
(§12) One hour later, 12.5 μL of test or reference substances were added again at 2× concentrated followed by 12.5 μL of LPS at 12× concentration. Fifty microliters of ATP were introduced at 4× concentration, 5 h 30 min after incubation with LPS.
(§13) Six hours after LPS incubation, the supernatant of each well was collected and centrifugated at 1000 g for 10 minutes to remove the cells and debris.
(§14) Fifty microliters of supernatant from NT and LPS+ATP-treated wells were used to determine cytokine secretion (IL-6, TNF-α, CXCL1/GROα) by Luminex platform according to the provider's instructions. Samples were diluted prior to the assay to fit within the standard range if needed. Three wells were tested per each condition (Table 10). Cytokines levels in the supernatant were expressed in pg/mL. The data was analyzed using a One-Way ANOVA followed by Bonferroni test.

IL-6 = test: LPS/ATP-induced IL-6 secretion by human microglia cells (Luminex); format: cell-based; details: as compared with […] distilled water in presence of LPS and ATP
Description: as §7, §8, §9, §10, §11, §12, §13, §14

[4] = MPP+ 100 μM, Table 8.2 (FIG. 7C), PCI 30 μM
[5] = MPP+ 100 μM, Table 6.2 (FIG. 7A), followed 72 hours, PCI 30 μM

## Nc1c(Br)cc(Br)cc1CN[C@H]1CC[C@H](O)CC1 [AMB, Ambroxol]
[1]; [4]
  Cytolysis, %, Plate 2, Mean ± S.D.: 73.29 ± 2.23%
[2]; MPP+ 100 μM
  Neurite Length Data, Mean ± S.D.: 763.9 ± 209.8 mm/mm^2
  Neurite Branching Data, Mean ± S.D.: 20281.6 ± 8723.4 per mm^2
  effects on neurite outgrowth: no significant effects
[2]; [5]
  Neurite length, plate 2, Mean ± S.D.: 1332.1 ± 174.8 mm/mm^2

## Cc1c(O)c(=O)ccn1C [DFP, Deferiprone]
[1]; [4]
  Cytolysis, %, Plate 2, Mean ± S.D.: 71.91 ± 1.28%
[2]; MPP+ 100 μM
  Neurite Length Data, Mean ± S.D.: 874.5 ± 190.4 mm/mm^2
  Neurite Branching Data, Mean ± S.D.: 24282.5 ± 6612.9 per mm^2
  effects on neurite outgrowth: no significant effects
[2]; [5]
  Neurite length, plate 2, Mean ± S.D.: 1303.0 ± 378.7 mm/mm^2
[2]; MPP+ 100 μM, Table 7.2 (FIG. 7B), followed 72 hours, PCI 30 μM
  Neurite Branching Data, Plate 2, Mean ± S.D.: 51711.3 ± 15178.4 per mm^2
[3]
  substantia nigra iron deposits (MRI) and motor scores of disease progression: showed improvement

## CC(C)(O)c1coc(S(=O)(=O)NC(=O)Nc2c3c(cc4c2CCC4)CCC3)c1 [MCC950]
IL-1β
  concentration of IL-1β: significantly decreased
TNF-α
  concentration of TNF-α: significantly decreased
IL-6
  concentration of IL-6: significantly decreased

## CC(C)[C@H](NC(=O)c1ccc2ccccc2n1)C(=O)N[C@@H](CC(=O)O)C(=O)COc1c(F)cccc1F [PCI/MPP+, Q-VD-OPh]
[1]
  Cytolysis, %, Plate 1, Mean ± S.D.: 65.56 ± 1.89%
  Cytolysis, %, Plate 2, Mean ± S.D.: 67.93 ± 3.52%
[2]
  Neurite Branching Data, Plate 1, Mean ± S.D.: 38456.3 ± 11570.7 per mm^2
  Neurite Branching Data, Plate 2, Mean ± S.D.: 52610.1 ± 16660.1 per mm^2
  Neurite length data, plate 1, Mean: 1301.0 mm/mm^2
  Neurite length, plate 2, Mean ± S.D.: 1430.1 ± 321.7 mm/mm^2
